Results published in PubChem BioAssay AID330 (DTP/NCI, 2004).
Several values for one entry are separate records, joined by “and”; a condition that tells them apart may be missing. Equal entries are not always repeated. Toxic doses and inconclusive results are not listed. How the source made its calls: active means survival T/C of 150% or more; inactive means T/C below 125% in these data.

Tested on: P388 leukemia ip, CD2F1 mice, survival T/C
Test: NCI In Vivo Anticancer Drug Screen. Data for tumor model P388 Leukemia (intraperitoneal) in CD2F1 (CDF1) mice
Details: endpoint: median survival time, higher = longer survival
Summary of the method: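 Mice carrying the transplanted tumor received test compound or vehicle. Survival was recorded in each group, and the value is the treated-group measurement divided by that of the vehicle-treated control group.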

[1] = dose: 60.0 mg/kg/injection, schedule: Q01DX005 (ip), vehicle: saline
[2] = dose: 120.0 mg/kg/injection, schedule: Q01DX005 (ip), vehicle: saline
[3] = dose: 50.0 mg/kg/injection, schedule: Q01DX009 (ip), vehicle: saline with Tween-80

Measured: T/C

O=C1OCCC(O)=C1C=Nc1ccccc1
inactive: dose: 6.25 mg/kg/injection, schedule: Q01DX005 (ip), vehicle: Klucel (hydroxypropylcellulose) (HPC) 108 % of control | dose: 12.5 mg/kg/injection, schedule: Q01DX005 (ip), vehicle: Klucel (hydroxypropylcellulose) (HPC) 112 % of control | dose: 25.0 mg/kg/injection, schedule: Q01DX005 (ip), vehicle: Klucel (hydroxypropylcellulose) (HPC) 117 % of control | dose: 100.0 mg/kg/injection, schedule: Q01DX001 (ip), vehicle: Klucel (hydroxypropylcellulose) (HPC) 100 % of control | dose: 200.0 mg/kg/injection, schedule: Q01DX001 (ip), vehicle: Klucel (hydroxypropylcellulose) (HPC) 97 % of control | dose: 400.0 mg/kg/injection, schedule: Q01DX001 (ip), vehicle: Klucel (hydroxypropylcellulose) (HPC) 99 % of control

CN1C(=O)C(=O)N2c3ccc(Cl)cc3C3(c4ccccc4)N=CC12O3 (stereo unspecified)
inactive: dose: 100.0 mg/kg/injection, schedule: Q04DX003 (ip), vehicle: Klucel (hydroxypropylcellulose) (HPC) 109 % of control | dose: 200.0 mg/kg/injection, schedule: Q04DX003 (ip), vehicle: Klucel (hydroxypropylcellulose) (HPC) 112 % of control | dose: 400.0 mg/kg/injection, schedule: Q04DX003 (ip), vehicle: Klucel (hydroxypropylcellulose) (HPC) 113 % of control

Cc1cc(NC(=O)Nc2cc(Cl)ccc2C)no1
inactive: dose: 60.0 mg/kg/injection, schedule: Q01DX005 (ip), vehicle: Klucel (hydroxypropylcellulose) (HPC) 87 % of control | dose: 120.0 mg/kg/injection, schedule: Q01DX005 (ip), vehicle: Klucel (hydroxypropylcellulose) (HPC) 93 % of control | dose: 240.0 mg/kg/injection, schedule: Q01DX005 (ip), vehicle: Klucel (hydroxypropylcellulose) (HPC) 93 % of control

O=c1c2ccccc2on1CN1CCN(Cn2oc3ccccc3c2=O)CC1
inactive: dose: 50.0 mg/kg/injection, schedule: Q01DX005 (ip), vehicle: water 106 % of control | dose: 100.0 mg/kg/injection, schedule: Q01DX005 (ip), vehicle: water 108 % of control | dose: 200.0 mg/kg/injection, schedule: Q01DX005 (ip), vehicle: water 111 % of control

COC(=O)C1OC(SCCN)C(O)C(O)C1O (stereo unspecified)
inactive: dose: 50.0 mg/kg/injection, schedule: Q01DX009 (ip), vehicle: water 100 % of control | dose: 100.0 mg/kg/injection, schedule: Q01DX009 (ip), vehicle: water 102 % of control | dose: 200.0 mg/kg/injection, schedule: Q01DX009 (ip), vehicle: water 91 % of control

S=C(Nc1ccc(Cl)cc1)SC1CCCCC1
inactive: dose: 25.0 mg/kg/injection, schedule: Q01DX009 (ip), vehicle: saline 100 % of control | dose: 50.0 mg/kg/injection, schedule: Q01DX009 (ip), vehicle: saline 102 % of control and 108 % of control | dose: 100.0 mg/kg/injection, schedule: Q01DX009 (ip), vehicle: saline 118 % of control and 119 % of control | dose: 200.0 mg/kg/injection, schedule: Q01DX009 (ip), vehicle: saline 124 % of control

CCOC(=O)C(C)(CCC(C)=O)C(=O)OCC
inactive: [1] 100 % of control | [2] 99 % of control | dose: 240.0 mg/kg/injection, schedule: Q01DX005 (ip), vehicle: saline 108 % of control

CCOC(=O)C(C)C(=O)C(C)N1C(=O)c2ccccc2C1=O (stereo unspecified)
inactive: dose: 25.0 mg/kg/injection, schedule: Q04DX003 (ip), vehicle: other 102 % of control | dose: 50.0 mg/kg/injection, schedule: Q04DX003 (ip), vehicle: other 96 % of control | dose: 100.0 mg/kg/injection, schedule: Q04DX003 (ip), vehicle: other 93 % of control | dose: 200.0 mg/kg/injection, schedule: Q04DX003 (ip), vehicle: other 93 % of control | dose: 400.0 mg/kg/injection, schedule: Q04DX003 (ip), vehicle: other 91 % of control

CCC1CC(C(=O)O)CC(=O)N1 (stereo unspecified)
inactive: dose: 17.5 mg/kg/injection, schedule: Q01DX005 (ip), vehicle: Klucel (hydroxypropylcellulose) (HPC) 92 % of control | dose: 35.0 mg/kg/injection, schedule: Q01DX005 (ip), vehicle: Klucel (hydroxypropylcellulose) (HPC) 90 % of control | dose: 70.0 mg/kg/injection, schedule: Q01DX005 (ip), vehicle: Klucel (hydroxypropylcellulose) (HPC) 97 % of control

O=C(O)CNC(=O)/C=C/c1ccc(O)c(O)c1
inactive: dose: 50.0 mg/kg/injection, schedule: Q01DX005 (ip), vehicle: Klucel (hydroxypropylcellulose) (HPC) 114 % of control | dose: 100.0 mg/kg/injection, schedule: Q01DX005 (ip), vehicle: Klucel (hydroxypropylcellulose) (HPC) 100 % of control | dose: 200.0 mg/kg/injection, schedule: Q01DX005 (ip), vehicle: Klucel (hydroxypropylcellulose) (HPC) 100 % of control

CCCCCCC(O)C[N+](=O)[O-] (stereo unspecified)
inactive: dose: 5.56 mg/kg/injection, schedule: Q01DX009 (ip), vehicle: saline with Tween-80 102 % of control | dose: 8.33 mg/kg/injection, schedule: Q01DX009 (ip), vehicle: saline with Tween-80 110 % of control | dose: 12.5 mg/kg/injection, schedule: Q01DX009 (ip), vehicle: saline with Tween-80 117 % of control and 124 % of control | dose: 18.7 mg/kg/injection, schedule: Q01DX009 (ip), vehicle: saline with Tween-80 115 % of control | dose: 25.0 mg/kg/injection, schedule: Q01DX009 (ip), vehicle: saline with Tween-80 111 % of control | [3] 120 % of control

CC(=O)OC1=CC2C(OC1=O)C1C=CC2(OC(C)=O)C(=O)O1 (stereo unspecified)
inactive: [3] 102 % of control | dose: 100.0 mg/kg/injection, schedule: Q01DX009 (ip), vehicle: saline with Tween-80 104 % of control | dose: 200.0 mg/kg/injection, schedule: Q01DX009 (ip), vehicle: saline with Tween-80 113 % of control

Cc1ccc(N2C(=O)C(C)SC23C(=O)Nc2ccc(Cl)cc23)cc1 (stereo unspecified)
inactive: dose: 60.0 mg/kg/injection, schedule: Q01DX005 (ip), vehicle: saline with Tween-80 91 % of control | dose: 120.0 mg/kg/injection, schedule: Q01DX005 (ip), vehicle: saline with Tween-80 96 % of control | dose: 240.0 mg/kg/injection, schedule: Q01DX005 (ip), vehicle: saline with Tween-80 100 % of control

O=C1SC/C(=N\N=c2/scc(-c3ccc(Br)cc3)n2-c2ccccc2)N1Cc1ccccc1
inactive: dose: 100.0 mg/kg/injection, schedule: Q04DX002 (ip), vehicle: Klucel (hydroxypropylcellulose) (HPC) 92 % of control | dose: 200.0 mg/kg/injection, schedule: Q04DX002 (ip), vehicle: Klucel (hydroxypropylcellulose) (HPC) 91 % of control | dose: 400.0 mg/kg/injection, schedule: Q04DX002 (ip), vehicle: Klucel (hydroxypropylcellulose) (HPC) 89 % of control

CSc1nc(N)c(N=O)c(N)n1
inactive: dose: 50.0 mg/kg/injection, schedule: Q04DX002 (ip), vehicle: suspension in saline 100 % of control | dose: 100.0 mg/kg/injection, schedule: Q04DX002 (ip), vehicle: suspension in saline 101 % of control | dose: 200.0 mg/kg/injection, schedule: Q04DX002 (ip), vehicle: suspension in saline 104 % of control

O=C(O)CN(CCN1CC(=O)OC(=O)C1)CCN1CC(=O)OC(=O)C1
inactive: [1] 102 % of control | [2] 97 % of control

CC(=O)N1CCCC2=C1CCCCCC2
inactive: dose: 12.5 mg/kg/injection, schedule: Q04DX003 (ip), vehicle: saline 99 % of control | dose: 25.0 mg/kg/injection, schedule: Q04DX003 (ip), vehicle: saline 104 % of control | dose: 50.0 mg/kg/injection, schedule: Q04DX003 (ip), vehicle: saline 104 % of control | dose: 100.0 mg/kg/injection, schedule: Q04DX003 (ip), vehicle: saline 117 % of control | dose: 200.0 mg/kg/injection, schedule: Q04DX003 (ip), vehicle: saline 101 % of control | dose: 400.0 mg/kg/injection, schedule: Q04DX003 (ip), vehicle: saline 100 % of control

CCCCNC(=O)OCC1=C(COC(=O)NCCCC)C2OC1C(C(=O)OC)=C2C(=O)OC
inactive: dose: 3.13 mg/kg/injection, schedule: Q01DX009 (ip), vehicle: distilled water + Tween-80 109 % of control | dose: 6.25 mg/kg/injection, schedule: Q01DX009 (ip), vehicle: distilled water + Tween-80 101 % of control and 108 % of control and 113 % of control | dose: 50.0 mg/kg/injection, schedule: Q01DX009 (ip), vehicle: distilled water + Tween-80 104 % of control and 108 % of control | dose: 100.0 mg/kg/injection, schedule: Q01DX009 (ip), vehicle: distilled water + Tween-80 95 % of control
